Literature values as cited in patent publication US20130230609A1, “ANTIMICROBIAL/PRESERVATIVE COMPOSITIONS COMPRISING BOTANICALS” (priority 2012, published 2013).

zinc glycerate
water solubility (in words): moderately water soluble

zinc picolinate
water solubility (in words): moderately water soluble
